Read-outs that look alike come from different tables or passages of the source.
Tests used:
[1] = test system: HCV1b/Con1 replicon; assay: HCV replicon antiviral evaluation assay (Luc reporter); type: cell-based; settings: concentration inhibiting HCV replicon by 50%, Huh7 ET cells, 72 hr
[2] = Cytotoxicity, CytoTox-1 cell proliferation assay of cell numbers; settings: human
[3] = test system: ET (luc-ubi-neo/ET) Huh7 human hepatoma cell line; assay: as above; settings: concentration decreasing cell viability by 50%; Huh7 ET cells, 72 hr; Table 1
[4] = test system: ET (luc-ubi-neo/ET) Huh7 human hepatoma cell line
[5] = Hepatitis C virus, Table 1, 2′-C-methyl nucleoside phosphoramidates
[6] = Table 1, 2′-C-methyl nucleoside phosphoramidates

SMILES	EC50 [1, 6] [nM]	CC50 [3] [µM]	CC50 [4] [µM]	also measured
C[C@@]1(O)[C@H](O)[C@@H](CO)O[C@H]1n1ccc(N)nc1=O [Cmpd 4, 2′-C-methylcytidine, reference compound]				EC50 [1, 5]: 1340 nM; CC50 at 72 h [2]: > 100 µM
C[C@@]1(O)[C@H](O)[C@@H](CO)O[C@H]1n1ccc(=O)[nH]c1=O [Cmpd 5, 2′-C-methyluridine, reference compound]				EC50 [1, 5]: 6310 nM; CC50 at 72 h [2]: > 100 µM
COC(=O)C[C@H](NP(=O)(OCC1OC(n2ccc(N)nc2=O)C(C)(O)C1O)Oc1ccccc1)C(=O)OC (stereo partly drawn) [Cmpd 16a, 2′-C-methylcytidine-5′-[phenyl-bis(methoxy-aspartyl)]phosphate]	3710	> 100		
COC(=O)[C@H](CC(=O)OCc1ccccc1)NP(=O)(OCC1OC(n2ccc(N)nc2=O)C(C)(O)C1O)Oc1ccccc1 (stereo partly drawn) [Cmpd 16b, 2′-C-methylcytidine-5′-[phenyl-(α-methoxy-β-benzyloxy-aspartyl)]phosphate]	1320	> 100		
CC(C)OC(=O)C[C@H](NP(=O)(OCC1OC(n2ccc(N)nc2=O)C(C)(O)C1O)Oc1ccccc1)C(=O)OC(C)C (stereo partly drawn) [Cmpd 16c, 2′-C-Methylcytidine-5′-[1-phenyl-bis(isopropyl-aspartyl)]phosphate]	960	> 100		
CCCCOC(=O)C[C@H](NP(=O)(OC[C@H]1O[C@@H](n2ccc(N)nc2=O)[C@](C)(O)[C@@H]1O)Oc1ccccc1)C(=O)OCCCC (stereo partly drawn) [Cmpd 16d, 2′-C-Methylcytidine-5′-[phenyl-bis(n-butyl-aspartyl)]phosphate]	260	30.9		
CCCCCOC(=O)C[C@H](NP(=O)(OCC1OC(n2ccc(N)nc2=O)C(C)(O)C1O)Oc1ccccc1)C(=O)OCCCCC (stereo partly drawn) [Cmpd 16e, 2′-C-Methyl-cytidine-5′-[phenyl-bis(amyl-aspartyl)]phosphate]	50		9.53	
CC(C)CCOC(=O)C[C@H](NP(=O)(OCC1OC(n2ccc(N)nc2=O)C(C)(O)C1O)Oc1ccccc1)C(=O)OCCC(C)C (stereo partly drawn) [Cmpd 16f, 2′-C-Methylcytidine-5′-[phenyl-bis(isoamyl-aspartyl)]phosphate]	50	9.54		
COC(=O)C[C@H](NP(=O)(OCC1OC(n2ccc(=O)[nH]c2=O)C(C)(O)C1O)Oc1ccccc1)C(=O)OC (stereo partly drawn) [Cmpd 17a, 2′-C-methyluridine-5′-[phenyl-bis(methoxy-aspartyl)]phosphate]	1130	> 100		
COC(=O)[C@H](CC(=O)OCc1ccccc1)NP(=O)(OCC1OC(n2ccc(=O)[nH]c2=O)C(C)(O)C1O)Oc1ccccc1 (stereo partly drawn) [Cmpd 17b, 2′-C-methyluridine-5′-[phenyl-(α-methoxy-β-benzyloxy-aspartyl)]phosphate]	260	43.4		
CC(C)OC(=O)C[C@H](NP(=O)(OCC1OC(n2ccc(=O)[nH]c2=O)C(C)(O)C1O)Oc1ccccc1)C(=O)OC(C)C (stereo partly drawn) [Cmpd 17c, 2′-C-Methyl-uridine-5′-[1-phenyl-bis(isopropyl-aspartyl)]phosphate]	290		35.7	
CCCCOC(=O)C[C@H](NP(=O)(OCC1OC(n2ccc(=O)[nH]c2=O)C(C)(O)C1O)Oc1ccccc1)C(=O)OCCCC (stereo partly drawn) [Cmpd 17d, 2′-C-Methyl-uridine-5′-[phenyl-bis(n-butyl-aspartyl)]phosphate]	40		4.64	
CCCCCOC(=O)C[C@H](NP(=O)(OCC1OC(n2ccc(=O)[nH]c2=O)C(C)(O)C1O)Oc1ccccc1)C(=O)OCCCCC (stereo partly drawn) [Cmpd 17e, 2′-C-Methyl-uridine-5′-[phenyl-bis(amyl-aspartyl)]phosphate]	30		7.11	
CC(C)CCOC(=O)C[C@H](NP(=O)(OCC1OC(n2ccc(=O)[nH]c2=O)C(C)(O)C1O)Oc1ccccc1)C(=O)OCCC(C)C (stereo partly drawn) [Cmpd 17f, 2′-C-Methyl-uridine-5′-[phenyl-bis(isoamyl-aspartyl)]phosphate]	30		10	
C[C@@]1(F)[C@H](O)[C@@H](CO)O[C@H]1n1ccc(=O)[nH]c1=O [Cmpd 22, 2′-deoxy-2′-fluoro-2′-C-methyluridine, reference compound]				EC50 ([1]; Hepatitis C virus, Table 2, 2′-F-nucleoside phosphoramidates): > 100000 nM; CC50 at 72 h [2]: > 100 µM
CC(C)CCOC(=O)C[C@H](NP(=O)(OCC1OC(n2ccc(=O)[nH]c2=O)C(C)(F)C1O)Oc1ccccc1)C(=O)OCCC(C)C (stereo partly drawn) [Cmpd 23a, 2′-Deoxy-2′-fluoro-2′-C-methyl-uridine-5′-[phenyl-bis(isoamyl-aspartyl)]phosphate]			27.7	EC50 ([1]; Table 2, 2′-F-nucleoside phosphoramidates): 60 nM
CC(C)CCOC(=O)C[C@H](NP(=O)(OCC1OC(n2ccc(=O)[nH]c2=O)C(C)(F)C1O)Oc1ccccc1)C(=O)OCCC(C)C (stereo partly drawn) [Mixture 23a/23b, 2′-Deoxy-2′-fluoro-2′-C-methyl-uridine-5′-[phenyl-bis(isoamyl-aspartyl)]phosphate]			33.1	

From US20170022242A1, “NOVEL ANTIVIRAL AND ANTITUMORAL COMPOUNDS” (KATHOLIEKE UNIVERSITEIT LEUVEN, KU LEUVEN R&D, priority 2014, published 2017)
